Reference: patent US4916141A, “(S)-7-(3-amino-1-pyrrolidinyl)-1-cyclop ropyl-6-fluoro-1,4-dihydro-4-oxo-1,8-naphthyridine-3-carboxylic acid” (Warner-Lambert Company, priority 1989, dated 1990)
≈ marks a conversion by molar mass, not a printed value. Structures can show the parent of a compound that is named as a salt.

What was measured:
[1] = test system: Streptococcus pneumoniae SV-1; test: microtitration dilution MIC; format: cell-based; conditions: SV1, read-out: minimum inhibitory concentration (MIC)
Text: (§1) The compounds of the invention display antibacterial activity when tested by the microtitration dilution method as described in Heifetz, et al, […]. Agents and Chemot. 6, 124 (1974), which is incorporated herein by reference. […] Pat. No. 4,649,144.

[2] = test system: Staphylococcus faecalis MGH-2; test: microtitration dilution MIC; format: cell-based; conditions: MGH2, read-out: minimum inhibitory concentration (MIC)
Text: as §1

[3] = test system: Streptococcus pyogenes C-203; test: microtitration dilution MIC; format: cell-based; conditions: C203, read-out: minimum inhibitory concentration (MIC)
Text: as §1

[4] = test system: Staphylococcus aureus H 228; test: microtitration dilution MIC; format: cell-based; conditions: H228, read-out: minimum inhibitory concentration (MIC)
Text: as §1

[5] = test system: Escherichia coli Vogel; test: microtitration dilution MIC; format: cell-based; conditions: read-out: minimum inhibitory concentration (MIC)
Text: as §1

[6] = test system: Staphylococcus aureus UC-76; test: microtitration dilution MIC; format: cell-based; conditions: UC76, read-out: minimum inhibitory concentration (MIC)
Text: as §1

[7] = test system: Klebsiella pneumoniae MGH-2; test: microtitration dilution MIC; format: cell-based; conditions: MGH2, read-out: minimum inhibitory concentration (MIC)
Text: as §1

[8] = test system: Enterobacter cloacae MA 2646; test: microtitration dilution MIC; format: cell-based; conditions: MA2646, read-out: minimum inhibitory concentration (MIC)
Text: as §1

[9] = test system: Proteus rettgeri M 1771; test: microtitration dilution MIC; format: cell-based; conditions: Providencia rettgeri, M1771, read-out: minimum inhibitory concentration (MIC)
Text: as §1

[10] = test system: Pseudomonas aeruginosa UI-18; test: microtitration dilution MIC; format: cell-based; conditions: UI18, read-out: minimum inhibitory concentration (MIC)
Text: as §1

[11] = test system: Streptococcus pneumoniae SV-1; test: acute mouse protection test (PD50); format: in vivo, mouse (female Charles River CD-1); conditions: for median protective dose (PD50) P.O.: oral; for median protective dose (PD50) S.C.: subcutaneous
Protocol: (§2) The in vivo experiments on the bacteria named are expressed in terms of median protective doses (PD50) on the test animals to which the compounds were administered orally and subcutaneously. The measurement of PDso was carried out according to the following procedure:
(§3) Therapeutic activities of the compounds were compared in acute mouse protection tests in which 18-22 g female Charles River CD-1 mice were used. Oral and subcutaneous doses in twofold rising incremental series were administered concurrently with bacterial challenge. Challenges were accomplished by the intraperitoneal injection of an estimated 100 median lethal doses in 0.5 ml volumes of 5% hog gastric mucin or tryptic soy broth. Generally, greater than 90% of the untreated controls died within 48-72 hours. Final survival percentages, obtained after 4-7 days of observation among groups of 8-16 mice, were used to estimate median protective doses (PD50) by the log-probit method.

[12] = test system: Staphylococcus faecalis MGH-2; test: acute mouse protection test (PD50); format: in vivo, mouse (female Charles River CD-1); conditions: for median protective dose (PD50) P.O.: oral; for median protective dose (PD50) S.C.: subcutaneous
Protocol: as §2, §3

[13] = test system: Escherichia coli Vogel; test: acute mouse protection test (PD50); format: in vivo, mouse (female Charles River CD-1); conditions: for median protective dose (PD50) P.O.: oral; for median protective dose (PD50) S.C.: subcutaneous
Protocol: as §2, §3

[14] = test system: Pseudomonas aeruginosa UI-18; test: acute mouse protection test (PD50); format: in vivo, mouse (female Charles River CD-1); conditions: for median protective dose (PD50) P.O.: oral; for median protective dose (PD50) S.C.: subcutaneous
Protocol: as §2, §3

[15] = test system: gram-positive and gram-negative bacteria; test: antibacterial activity in vitro and in vivo (summary statement); conditions: in vitro as well as in vivo
Text: The compounds of the invention display antibacterial activity when tested by the microtitration dilution method as described in Heifetz, et al, Antimicr. Agents and Chemot. 6, 124 (1974), which is incorporated herein by reference. By the use of the above reference method, the following minimum inhibitory concentration values (MICs in μg/ml) were obtained for the compound of the present invention, (S)-7-(3-amino-1-pyrrolidinyl)-1-cyclopropyl-6-fluoro-1,4-dihydro-4-oxo-1,8-naphthyridine-3-carboxylic acid, the corresponding (R) isomer and the racemic compound as described in U.S. Pat. No. 4,649,144.
as §2
as §3, with “Final survival percentages, obtained after 4-7 days of observation among groups of 8-16 mice, were used to estimate median protective doses (PD50) by the log-probit method.” left out

| SMILES | MIC [1] [µg/mL] | MIC [2] [µg/mL] | MIC [3] [µg/mL] | MIC [4] [µg/mL] | MIC [5] [µg/mL] | MIC [6] [µg/mL] | MIC [7] [µg/mL] | MIC [8] [µg/mL] | MIC [9] [µg/mL] | MIC [10] [µg/mL] | median protective dose (PD50) P.O. [11] | median protective dose (PD50) S.C. [11] | median protective dose (PD50) P.O. [12] | median protective dose (PD50) S.C. [12] | median protective dose (PD50) P.O. [13] | median protective dose (PD50) S.C. [13] | median protective dose (PD50) P.O. [14] | median protective dose (PD50) S.C. [14] | antibacterial activity compared with R isomer and racemic compound [15] | antibacterial activity compared with R isomer and racemic compound ([15]; listed as S form) |
| --- | --- | --- | --- | --- | --- | --- | --- | --- | --- | --- | --- | --- | --- | --- | --- | --- | --- | --- | --- | --- |
| NC1CCN(c2nc3c(cc2F)c(=O)c(C(=O)O)cn3C2CC2)C1 (racemic) [Racemic, 7-(3-amino-1-pyrrolidinyl)-1-Cyclopropyl-6-fluoro-1,4-dihydro-4-oxo-1,8-naphthyridine-3-carboxylic acid] | 0.2 (≈ 0.602 µM) | 0.2 (≈ 0.602 µM) | 0.2 (≈ 0.602 µM) | 0.2 (≈ 0.602 µM) | 0.013 (≈ 0.0391 µM) | 0.013 (≈ 0.0391 µM) | 0.025 (≈ 0.0752 µM) | 0.025 (≈ 0.0752 µM) | 0.1 (≈ 0.301 µM) | 0.05 (≈ 0.15 µM) | 32 | 14 | 58 | 33 | 2.0 | 0.6 | 7.3 | 3.2 | – | – |
| N[C@@H]1CCN(c2nc3c(cc2F)c(=O)c(C(=O)O)cn3C2CC2)C1 ["R" Isomer, (R)-7-(3-Amino-1-pyrrolidinyl)-1-cyclopropyl)-6-fluoro-1,4-dihydro-4-oxo-1,8-naphthyridine-3carboxylic acid hydrochloride] | 0.1 | 0.2 | 0.2 | 0.2 | 0.013 | 0.05 | 0.025 | 0.025 | 0.05 | 0.4 | – | – | 45 | 34 | 0.51 | 0.35 | – | – | – | – |
| N[C@H]1CCN(c2nc3c(cc2F)c(=O)c(C(=O)O)cn3C2CC2)C1 ["S" Isomer, (S)-7-(3-Amino-1-pyrrolidinyl)-1-cyclopropyl-6-fluoro-1,4-dihydro-4-oxo-1,8-naphthyridine-3-carboxylic acid] | 0.05 (≈ 0.15 µM) | 0.1 (≈ 0.301 µM) | 0.05 (≈ 0.15 µM) | 0.05 (≈ 0.15 µM) | 0.006 (≈ 0.0181 µM) | 0.013 (≈ 0.0391 µM) | 0.013 (≈ 0.0391 µM) | 0.013 (≈ 0.0391 µM) | 0.025 (≈ 0.0752 µM) | 0.1 (≈ 0.301 µM) | 19 | 9 | 19 | 14 | 0.7 | 0.35 | 3.5 | 2.1 | not only better than its opposite R isomer but also better than the racemic compound | significantly better activity against both gram-positive and gram-negative bacteria in vitro as well as in vivo |
